# Experimental data taken from US20220338465A1, “FLUIDIC PLATFORMS FOR PERFUSABLE VASCULARIZED TISSUES” (Massachusetts Institute of Technology, priority 2021, published 2022).
# Entries after “also recorded” stand apart in the source; their conditions may differ.
# Assays:
# HUVEC monoculture = test: Inhibitory tests on MVN formation by HUVEC monoculture in fibrin gel under IF, single channel device; format: cell-based, human
# Method: (§1) FIGS. 8A-8E are graphs showing that IF enhances the vasculogenesis ability of EC through upregulation of MMP-2. MVN was formed statically with HUVEC monoculture in 3-channel device MVN was formed with HUVEC monoculture in single channel device under IF induced by 10 mm H2O pressure difference, or with various inhibitors added: 100 μM PAI-1, 200 U/ml aprotinin, 50 μM marimast, 50 μM NSC 405020, 100 μg/ml MMP-1 neutralizing antibody and 100 μg/ml control antibody. Samples were pooled at day 3. n=3 FIGS. 8A-8D are graphs showing the statistical analysis of morphological parameters and perfusability of perfusable vessels cultured with various concentration of ARP-100. IF induced by 10 mm H2O pressure difference were applied to all cases. n=5 devices for control, n=3 devices for each inhibitor treated group. Significance was calculated with two sample t tests. ***P<0.01. FIG. 8E is a graph of vascular permeability measurements of 40 kDa dextran for perfusable MVNs formed under various conditions. n=3 devices for each group, 3 measurements were performed in each device at different ROIs.
# (§2) Green fluorescent protein (“GFP”) tagged human umbilical vein endothelial cells (HUVECs) and human lung fibroblasts (HLFs) were seeded in a 7:1 ratio for all static and IF experiments. Devices were imaged under confocal microscopy with dextran dye perfused at day 6, when MVN were interconnected and perfusable. Devices were seeded with HUVECs and HLFs in combination and HUVECs alone.
# (§3) Perfusability is a crucial factor when evaluating the quality of engineered MVN, since the major function of vessels is to transport nutrients, oxygen, metabolic wastes and various cells through perfusable lumens. Perfusability is measured as the ratio between dextran dye cover area (perfusable vessels) and GFP HUVEC cover area (all the vessels). […] To better interpret perfusability, MVN with at least one perfusable vessels across the gel region is defined as partially perfusable, and MVN with perfusability over 80% is defined as fully perfusable.
# HUVEC monoculture of the same concentration were also seeded in single channel devices of FIG. 5B and subjected to IF.
# Culture media was also supplemented with high concentration (100 uM) plasminogen activator inhibitor-1, which inhibits both uPA and tPA, or aprotinin, which inhibits plasmin.
# ARP-100 (IC50 values are 12, 200, 4500, >50000 and >50000 nM for MMP-2, -9, -3, -1, -7, respectively) and NSC 405020 (selective inhibitor of the collagenolytic activity of MT1-MMP without affecting the catalytic activity of cellular MT1-MMP) were tested as specific inhibitors for MMP-2 and MMP-14. 14. High concentrations of anti-MMP-1 neutralizing antibody were used to inhibit MMP-1 activity
# HUVEC and HLF coculture = test: MVN formation by HUVEC and HLF coculture under IF with MMP-2 inhibitor; format: cell-based, human; conditions: 20 uM
# Method: FIGS. 10A-10D are graphs showing that IF enhances formation of fully perfusable microvascular network made by HUVEC and HLF. FIGS. 10A-10D are Statistical analysis of morphological parameters and perfusability of perfusable vessels cultured with various concentration of ARP-100. n=6 devices for control, n=3 devices for each inhibitor treated group. Significance was calculated with two sample t tests. ***P<0.01.
# as §2, §3
# [1] = tested on: MVN formed by HUVEC monoculture; test: Vascular permeability of 40 kDa dextran in perfusable MVN; format: cell-based, human; conditions: HUVEC monoculture with 10 μM inhibitor under IF
# Method: as §1, with “FIG. 8E is a graph of vascular permeability measurements of 40 kDa dextran for perfusable MVNs formed under various conditions. n=3 devices for each group, 3 measurements were performed in each device at different ROIs.” left out
# In summary, MVN formed without supporting cells tends to be leakier. Since vascular permeability is a critical aspect of functionality of engineered MVN, vascular permeability of 40 kD dextran was measured and compared under various conditions where perfusable vessels can be robustly formed. […] Moreover, all the measurements were in the order of 10^−8 cm/s, which are quite low for vascular permeability measured using 40 kDa dextran. […]
# [2] = tested on: primary human brain endothelial cells (BECs), brain pericytes, and astrocytes; test: BBB MVN formation under IF with MMP-2 specific inhibitor; format: cell-based
# Method: BBB MVN were formed, consisting of primary human brain endothelial cells (BECs), brain pericytes, and astrocytes.
# Triculture were then seeded into single channel devices and grown under IF.
# All MVN tissues were immunstained and studied for histology and morphology. Quantitative PCR was also performed to measure MMP-2 levels. The effect of a MMP-2 specific inhibitor was also tested in the BBB model to antagonize the effect induced by IF, as observed in MVNs formed with HUVEC monoculture or HUVEC and HLF co-culture.
# MMP-2 = target: T1, MMP-2 (Homo sapiens, UniProt P08253); conditions: cited from earlier work
# T1 sequence (P08253 110-660): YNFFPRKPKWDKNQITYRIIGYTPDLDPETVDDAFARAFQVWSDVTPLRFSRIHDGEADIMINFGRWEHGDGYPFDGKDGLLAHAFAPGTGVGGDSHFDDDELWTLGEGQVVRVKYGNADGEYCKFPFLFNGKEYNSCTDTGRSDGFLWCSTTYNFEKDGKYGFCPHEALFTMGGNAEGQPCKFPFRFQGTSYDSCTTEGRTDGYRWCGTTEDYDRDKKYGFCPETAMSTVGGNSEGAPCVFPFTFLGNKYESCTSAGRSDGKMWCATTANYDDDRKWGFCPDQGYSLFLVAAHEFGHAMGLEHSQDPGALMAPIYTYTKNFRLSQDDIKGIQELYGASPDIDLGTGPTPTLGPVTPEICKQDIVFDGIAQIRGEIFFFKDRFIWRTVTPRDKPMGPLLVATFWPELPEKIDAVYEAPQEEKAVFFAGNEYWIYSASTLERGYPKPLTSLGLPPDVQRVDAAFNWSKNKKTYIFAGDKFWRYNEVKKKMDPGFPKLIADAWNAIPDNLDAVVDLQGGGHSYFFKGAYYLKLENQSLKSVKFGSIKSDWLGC
# MMP-3 = MMP-3 (Homo sapiens, UniProt P08254); conditions: cited from earlier work
# Sequence of MMP-3 (P08254 100-477): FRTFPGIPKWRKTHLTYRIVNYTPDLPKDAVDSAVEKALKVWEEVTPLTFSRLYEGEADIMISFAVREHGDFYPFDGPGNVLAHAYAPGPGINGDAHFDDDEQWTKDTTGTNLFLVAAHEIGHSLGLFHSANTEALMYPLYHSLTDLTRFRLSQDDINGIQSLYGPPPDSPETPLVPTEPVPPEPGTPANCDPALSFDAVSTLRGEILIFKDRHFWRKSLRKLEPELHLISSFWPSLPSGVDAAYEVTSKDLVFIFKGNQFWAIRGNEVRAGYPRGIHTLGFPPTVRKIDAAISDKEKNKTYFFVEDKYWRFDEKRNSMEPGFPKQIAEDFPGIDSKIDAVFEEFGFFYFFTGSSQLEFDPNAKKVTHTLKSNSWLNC
# MMP-1 = target: T2, MMP-1 (Homo sapiens, UniProt P03956); conditions: cited from earlier work
# T2 sequence (P03956 100-469): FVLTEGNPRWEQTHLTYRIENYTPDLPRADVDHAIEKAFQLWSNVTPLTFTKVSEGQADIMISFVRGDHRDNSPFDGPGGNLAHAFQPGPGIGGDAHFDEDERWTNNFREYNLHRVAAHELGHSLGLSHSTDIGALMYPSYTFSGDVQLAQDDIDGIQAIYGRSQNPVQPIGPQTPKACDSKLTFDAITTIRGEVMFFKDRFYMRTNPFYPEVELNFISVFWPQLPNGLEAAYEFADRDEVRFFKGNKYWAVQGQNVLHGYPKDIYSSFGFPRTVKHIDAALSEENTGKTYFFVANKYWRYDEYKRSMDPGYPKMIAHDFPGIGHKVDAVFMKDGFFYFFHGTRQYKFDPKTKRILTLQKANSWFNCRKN
# MMP-7 = target: T3, MMP-7 (Homo sapiens, UniProt P09237); conditions: cited from earlier work
# T3 sequence (P09237 95-267): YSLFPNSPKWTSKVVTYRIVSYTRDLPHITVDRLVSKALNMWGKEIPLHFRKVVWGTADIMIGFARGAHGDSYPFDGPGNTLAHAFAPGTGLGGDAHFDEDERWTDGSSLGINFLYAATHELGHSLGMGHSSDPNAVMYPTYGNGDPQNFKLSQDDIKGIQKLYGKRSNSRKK
# MMP-9 = MMP-9 (Homo sapiens, UniProt P14780); conditions: read-out: IC50 for MMP-9; cited from earlier work
# Sequence of MMP-9 (P14780 94-707): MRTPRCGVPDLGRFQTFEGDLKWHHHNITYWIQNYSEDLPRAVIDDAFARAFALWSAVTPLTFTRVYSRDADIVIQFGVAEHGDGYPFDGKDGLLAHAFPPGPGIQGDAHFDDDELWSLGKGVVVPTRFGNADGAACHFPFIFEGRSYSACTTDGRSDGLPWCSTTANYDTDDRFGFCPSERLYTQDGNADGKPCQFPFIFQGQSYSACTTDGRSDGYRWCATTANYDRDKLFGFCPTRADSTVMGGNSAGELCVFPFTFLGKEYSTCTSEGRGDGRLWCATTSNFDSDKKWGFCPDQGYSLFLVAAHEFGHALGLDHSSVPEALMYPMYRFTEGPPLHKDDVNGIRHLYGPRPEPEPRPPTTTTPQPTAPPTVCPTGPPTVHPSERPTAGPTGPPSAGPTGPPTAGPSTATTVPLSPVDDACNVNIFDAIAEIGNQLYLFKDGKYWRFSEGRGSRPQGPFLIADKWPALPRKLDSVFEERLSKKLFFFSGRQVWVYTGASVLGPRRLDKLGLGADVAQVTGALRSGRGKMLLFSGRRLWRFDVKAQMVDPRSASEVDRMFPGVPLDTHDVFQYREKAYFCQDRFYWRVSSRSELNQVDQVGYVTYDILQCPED
molecule,measurement,setting,value
CC(C)ON(CC(=O)NO)S(=O)(=O)c1ccc(-c2ccccc2)cc1 [ARP-100],"MVN morphology (vessel diameter, coverage area, branches)",HUVEC monoculture; 10 μM,"significantly narrower vessels, reduced coverage area and increased branches; also recorded: effectively reduced the average diameter and coverage area of vessels"
same,perfusability of MVN,"HUVEC monoculture; 10 μM, in comparison with control group",perfusability well maintained
same,perfusion of MVN with dextran dye,HUVEC monoculture; 20 μM,no vessels can be successfully perfused with dextran dye
same,network structure development,"HUVEC monoculture; 50 uM, day 5",complete failure in developing network structure
same,perfusability of MVN,HUVEC and HLF coculture,can maintain high perfusability
same,vascular permeability of 40 kD dextran,[1],~10^−8 cm/s
same,BBB network vessel morphology,"[2]; day 3, 20 uM compared with 10 μM",thinner and sparser vessels
same,BBB network perfusability and morphology,"[2]; day 6, higher concentration (20 uM)",disconnected thin network segments without any perfusable vessels
same,BBB network perfusability and morphology,"[2]; day 6, low concentration (10 μM)",became perfusable with much thinner vessels compared to untreated ones
same,IC50,MMP-2,12 nM
same,IC50,MMP-3,4500 nM
same,IC50,MMP-1,> 50000 nM
same,IC50,MMP-7,> 50000 nM
same,IC50,MMP-9,200 nM
CCCC(C)NC(=O)c1ccc(Cl)c(Cl)c1 (stereo not drawn) [NSC 405020],changes in formed MVN,HUVEC monoculture; 50 μM,didn't induce any noticeable changes in formed MVN
CNC(=O)[C@@H](NC(=O)[C@H](CC(C)C)[C@H](O)C(=O)NO)C(C)(C)C [marimast],vessel formation,"HUVEC monoculture; 50 μM, 5 days",completely disrupted the vessel formation process
aprotinin,development of fully perfusable MVN,HUVEC monoculture; 200 U/ml in culture media,did not affect the development of fully perfusable MVN
plasminogen activator inhibitor-1,development of fully perfusable MVN,HUVEC monoculture; 100 uM in culture media,did not affect the development of fully perfusable MVN
